# Patent US20200239587A1, “SENSITIZATION OF TUMORS TO THERAPIES THROUGH ENDOGLIN ANTAGONISM” (Cedars-Sinai Medical Center, priority 2016, published 2020)
# “Also recorded” adds a separate entry of the source.
# B1: SFRP1: human recombinant SFRP1 (Secreted Frizzled Related Protein 1) (protein, UniProt Q8N474 32-314, looked up)
# Secreted frizzled-related …: SEYDYVSFQSDIGPYQSGRFYTKPPQCVDIPADLRLCHNVGYKKMVLPNLLEHETMAEVKQQASSWVPLLNKNCHAGTQVFLCSLFAPVCLDRPIYPCRWLCEAVRDSCEPVMQFFGFYWPEMLKCDKFPEGDVCIAMTPPNATEASKPQGTTVCPPCDNELKSEAIIEHLCASEFALRMKIKEVKKENGDKKIVPKKKKPLKLGPIKKKDLKKLVLYLKNGADCPCHQLDNLSHHFLIMGRKVKSQYLLTAIHKWDKKNKEFKNFMKKMKNHECPTFQSVFK
# B2: BMP: bone morphogenic protein (BMP4, 50 ng/ml) used to stimulate 22Rv1 cells (protein, UniProt P12644 293-408, looked up)
# Bone morphogenetic protein 4: SPKHHSQRARKKNKNCRRHSLYVDFSDVGWNDWIVAPPGYQAFYCHGDCPFPLADHLNSTNHAIVQTLVNSVNSSIPKACCVPTELSAISMLYLDEYDKVVLKNYQEMVVEGCGCR
# What was measured:
# 22Rv1 cells [1] = test: Cell counts with oligomycin and irradiation; type: cell-based, human; conditions: irrespective of dose of oligomycin, 72 hrs; p<0.01
# Experimental: 22Rv1 cells were treated with indicated doses of ATPase inhibitor, oligomycin and exposed to 4Gy irradiation. Within each group, the left column is 0 Gy and the right column is 4 Gy. Cell counts were performed 72 hrs. following irradiation. (**p<0.01, ***p<0.001)
# 22Rv1 cells [2] = test: Total cellular ATP; type: cell-based, human; conditions: with or without 4 Gy, 0-168 hours
# Experimental: Cells were analyzed for mito-stress test by Seahorse-XF 168 hours following 4 Gy of radiation in the presence of IgG or TRC105. FIG. 26A) Basal respiration, non-mito respiration, proton leak, spare respiratory capacity, FIG. 26B) extracellular acidification rate (ECAR) and FIG. 26C) mitochondrial dependent ATP production were quantitated using Wave 2.3.0 analysis. Data are reported as mean+/−S.D. of a representative experiment (n=5) of 3 independent experiments. FIGS. 26A-26C, the first/left column depicts 0Gy+IgG, the second column depicts 0Gy+TRC105, the third column depicts 4Gy+IgG and the last/right column depicts 4Gy+TRC105. FIG. 26D) 22Rv1 cells treated with IgG, TRC105 or nicotinamide were irradiated (4 Gy). Total cellular ATP was measured 0, 24, 72, 120, and 168 hours post radiation. Within each group, the left column is IgG, middle column is TRC105 and the right column is nicotinamide. Data are reported as mean+/−S.D. of 3 independent experiments. (***p<0.001, ****p<0.0001).
# p53 in 22Rv1 cells = test: p53 status after irradiation; type: cell-based, human
# Experimental: In search for an alternate process mediating TRC105 radiation sensitization the inventors examined changes in cell cycle. The impact of radiation on the cell cycle is well described, as causing a G2 cell cycle arrest that undergoes cell cycle redistribution. […] As SIRT1 has previously been reported to regulate p53 stability by de-acetylating p53, the inventors investigated p53 status with TRC105 treatment. 22Rv1 cells were treated with either TRC105 or 200 μM nicotinamide, an inhibitor of SIRT1 activity, prior to irradiation (4Gy). Cells were then collected at 0, 1, and 7 days post radiation to elucidate early and late p53 response. […] While loss-of-function p53 mutations are rare in prostate cancer, 90% of pancreatic cancers have p53 mutations. We therefore used two p53 mutant pancreatic cancer cell lines: HPAF-II and MIAPACA-2 to identify if TRC105 unresponsiveness to radiation was due to p53 loss of functionality.
# [3] = tested on: CD105 cell surface expression in human CW22Rv1 epithelia and mouse prostatic fibroblasts; test: 3D co-culture, CD105 cell surface expression by FACS; type: cell-based; conditions: enzalutamide vs vehicle; epithelial and fibroblastic populations
# Experimental: After 72 hours, the cells were dissociated and assessed by FACS for CD105 expression as shown.
# A modified version of the 3D organotypic co-culture system was performed in a collagen matrix similar to that previously reported (Stark et al., 1999, J Invest Dermatol 112, 681-691). Collagen matrix gels were prepared by mixing five volumes of rat tail collagen I with two volumes of matrigel (NCI), one volume of 10× DMEM medium (GE Healthcare Life Sciences), and one volume of FBS (Atlanta Biologicals), Rv1 and primary mouse prostatic fibroblasts were combined in a 1:3 ratio. Nylon squares were coated with collagen and placed on metal grids in a 6-well plate. Gel plugs (150 μl) were transferred onto the nylon squares and media was added to the level of the nylon mesh. After 72 hours, the cells were dissociated from the matrix with collagenase and dispersed for FACS analysis.
# FACS experiments were performed with eBiosciences antibodies: anti-human Stro-1-FITC (340105), anti-human CD90-PE (12-0909-42), anti-human CD105-APC (17-1057-41), anti-mouse CD105-APC (17-1051-82), anti-human CD117-PE-Cy7 (15-1178-41), anti-human Ki67-PECy7 (25-5699-41), and anti-human EpCAM-PE (12-9326-41). All events were acquired on a BD LSRII flow cytometer in the Cedars-Sinai Medical Center FACS core installed with BD FACSDiva software. Files were analyzed using FlowJo software v10.2. […]
# [4] = tested on: tissue recombination orthotopic xenografts of primary human CAF and Rv1; test: Tissue recombination orthotopic xenografts of primary human CAF and Rv1; conditions: castrated mice given enzalutamide vs control intact mice
# Description: FIG. 13A) Mice were orthotopically grafted with tissue recombinants of CW22Rv1 and CAF. […] FIG. 13B) H&E staining was followed by immune-localization for phosphorylated-histoneH3 (PH-H3), TUNEL, and chromogranin A (ChromA). Scale bar represents 32 μm. The mitotic (PH-H3) and cell death (TUNEL) indexes were plotted. n>5, error bars are mean+/−SD and *p<0.05, **p<0.01, ***p<0.001, compared to control unless otherwise indicated.
# Male beige/SCID mice (Envigo), 6-8 or 10-12 weeks old, were used for subrenal capsule or prostatic orthotopic grafting, respectively, as previously described (Banerjee et al., 2014, Oncogene 33, 4924-4931; Hayward et al., 2001, Cancer Res 61, 8135-8142). In accordance with institutional animal care and use committee approval, 2×10^5 CW22Rv1 cells and 6×10^5 stromal cells were suspended in 20 μL type I collagen to be grafted into the subrenal capsule of mice castrated after seven days and sacrificed 21 days after castration. […] Tumor volume was calculated using the modified ellipsoid formula volume3=π/6×(width)2×length.
# Paraffin embedded tissues were sectioned (5 μm thick) were subjected to hematoxylin and eosin (H&E) staining and immunohistochemistry as previously reported (Placencio et al., 2008, Cancer research 68, 4709-4718). […] Anti-phosphorylated histone H3 (06-570, Millipore), anti-CD105 (NCL-CD105, Leica Microsystems), anti-Ki67 (ab16667, Abcam), and anti-chromogranin A (sc-13090, Santa Cruz Biotechnology), anti-SFRP1 (601-401-475S, Rockland Immunochemicals), and anti-survivin (2808, Cell Signaling) antibodies were incubated at 4° C. overnight. Secondary antibody development was performed with Dako Cytomation mouse or rabbit kits and visualized using 3,3′-diaminobenzidine tetrahydrochloride substrate. TUNEL staining was performed per manufacturer's protocol (S7100, Millipore). Slides were scanned with a Leica Biosystems Aperio AT. Up to five fields per tissue were quantitated with Fiji (ImageJ) using a custom written macro. Mitotic and death index were quantitated by taking the total number of positively-stained nuclei divided by the total number of nuclei.
# [5] = tested on: PCa patient-derived xenograft (PDX); test: PCa patient-derived xenograft (PDX), immune-localization of CD105 and SFRP1; type: in vivo, mice
# Description: See also FIG. 15. […] Scale bar represents 100 μm. […] See also FIG. 16.
# Rv1 = test: MTT proliferation assay; type: cell-based, human; conditions: enzalutamide alone, absence of fibroblastic cells; p<0.0001
# Experimental: (§1) CW22Rv1, C42B, and PC3 cells from ATCC were expanded as directed. Prostatectomy specimens from Cedars-Sinai Medical Center or the Greater Los Angeles Veterans Affairs were cultured to generate NAF and CAF cells using the same method, as C57BL/6 mouse wild-type prostatic fibroblasts were grown as previously reported (Franco et al., 2011, Cancer research 71, 1272-1281; Kiskowski et al., 2011, Cancer research 68, 4709-4718). TRC105 and M1043 were provided by TRACON Pharmaceuticals, Inc. (San Diego, Calif.). Enzalutamide (Xtandi) was purchased from Medivation (San Francisco, Calif.).
# (§2) 3000 cells per 96-well were treated for 72 hours using 5 wells per treatment. MTT reagent (M6494, Life Technologies) was prepared as directed, incubated for one hour at 37° C., and analyzed using manufacturer's recommendations.
# PC3 cells = test: MTT proliferation assay; type: cell-based, human; conditions: enzalutamide, absence of TRC105; no androgen receptor expression
# Experimental: as §1, §2
# C42B = test: MTT proliferation assay; type: cell-based, human; conditions: enzalutamide alone, absence of fibroblastic cells; p<0.0001
# Experimental: as §1, §2
# Rv1 cells [6] = test: Neuroendocrine gene panel in Rv1 treated with recombinant SFRP1; type: cell-based, human; conditions: 0, 0.01, 0.1, 1 μg/ml SFRP1; p<0.002
# Description: See also FIG. 15. […] Immunohistochemical localization of CD105 and SFRP1 in benign or PCa tissues are found in blood vessels (v), epithelia (e), and stroma (s), n=4. Scale bar represents 100 μm. FIG. 12E) Epithelial proliferation of human CW22Rv1, in 3D co-cultures with mouse prostatic fibroblasts, were co-stained for EpCam and Ki67 for FACS analysis. […] See also FIG. 16. […] Error bars are mean+/−SD and **p<0.01, ****p<0.0001, compared to control unless otherwise indicated.
# Total RNA was extracted using the RNeasy kit (Qiagen). 1 μg RNA was used for cDNA synthesis using iSCRIPT cDNA synthesis kit (1708891, Bio-Rad). Quantitative RT-PCR was performed with 5 replicates using the Step One Real-Time PCR system (Applied Biosystems). Gene mRNA expression was normalized to GAPDH. Primer sequences can be found in the Table 1. For RNA-sequencing, Ion Proton AmpliSeq Transcriptome RNA Sequencing was performed achieving an average of 3M reads. We mapped an average of 88% of the reads to the human genome with Torrent Suite version 4.4.2.
# Rv1 cells [7] = test: Rv1 proliferation with recombinant SFRP1; type: cell-based, human; conditions: same doses of SFRP1, 72 hours
# Description: Associations between copy number (CN), gene expression (GE), and methylation (Me) are denoted by lines from one node to another (p<0.01).
# [8] = tested on: SIRT1 protein expression in 22Rv1; test: Western blot for SIRT1 after BMP treatment; type: cell-based, human; conditions: serum-starved, 50 ng/ml BMP4 for 4 hours
# Experimental: FIG. 20A) Western blot for SIRT1 expression measured in 22Rv1 cells following serum starvation and treatment with 50 ng/ml BMP4 for 4 hours. Phosphorylated Smad1/5 and β-actin was measured concurrently. FIG. 20B) SIRT1 mRNA expression was measured in CW22Rv1 under serum free conditions with 50 ng/ml BMP4, IgG in the context of increasing doses of TRC105 (0.05, 0.1, 0.5, 1, 5, or 10 μg/ml). SIRT1 mRNA expression was normalized to GAPDH and to serum treated control. FIG. 20C) Fold Change of SIRT1 mRNA in benign prostate and prostate cancer patients, obtained from R2-Genomics analysis is expressed (n=95). FIG. 20D) Immunohistochemical localization for SIRT1 expression in benign and prostate cancer tissues is indicated by arrows (Human Protein Atlas). The “e” and “s” indicate epithelia and stromal compartments in the tissues, respectively. FIG. 20E) SIRT1 mRNA expression was measured 72 hours following irradiation of 22Rv1 in a dose range of 0-6 Gy. FIG. 20F) SIRT1 mRNA expression was measured in a time course 0-72 hours following 4 Gy irradiation. SIRT1 mRNA expression was normalized to GAPDH and to untreated, 0 Gy. Data are reported as a mean+/−S.D. of 3 independent experiments (***p<0.001, ****p<0.0001).
molecule,measurement,setting,value
CC[C@H]1/C=C/C=C/C[C@@H](C)[C@H](O)[C@@](C)(O)C(=O)[C@@H](C)[C@H](O)[C@@H](C)C(=O)[C@@H](C)[C@H](O)[C@@H](C)/C=C/C(=O)O[C@@H]2[C@H](C)[C@H](CC1)O[C@]1(CC[C@H](C)[C@H](C[C@@H](C)O)O1)[C@H]2C [oligomycin],cell proliferation by cell counting,22Rv1 cells [1],significantly reduced cell proliferation
"NC(=O)c1cccnc1 [nicotinamide, reference compound]",cellular ATP stores,22Rv1 cells [2],depleted regardless of radiation treatment
same,acetylated and total-p53,p53 in 22Rv1 cells; by 7 days post radiation,markedly increased
same,anti-apoptotic protein Bc1-2,p53 in 22Rv1 cells; prior to 4Gy irradiation,decrease in the anti-apoptotic protein Bc1-2
same,p21,p53 in 22Rv1 cells; prior to 4Gy irradiation,increase in p21
same,acetylated p53,"p53 in 22Rv1 cells; treatment prior to 4Gy, nicotinamide 200 μM",increase in acetylated p53
"CNC(=O)c1ccc(N2C(=S)N(c3ccc(C#N)c(C(F)(F)F)c3)C(=O)C2(C)C)cc1F [enzalutamide, reference compound]",CD105 cell surface expression,[3],three-fold increase
same,cell turnover by phosphorylated-histone H3 and TUNEL,[4],statistically comparable to control intact mice
same,tumor volume,[4],statistically comparable to control intact mice; also recorded: did not significantly decrease tumor growth
same,SFRP1 expression in PDX,[5]; enzalutamide treatment,upregulated
same,CD105 expression in PDX tissues,[5]; following 4 days of enzalutamide administration,elevated in both epithelial and CAF populations
same,cell proliferation (MTT),Rv1,significantly reduced cell proliferation; also recorded: sensitive to enzalutamide treatment
same,viability (MTT),PC3 cells,insensitive
same,cell proliferation (MTT),C42B,significantly reduced cell proliferation
B1,expression of panel of 9 PCa NED genes,Rv1 cells [6],significant induction of a panel of 9 PCa NED genes in a dose dependent manner
same,epithelial proliferation,Rv1 cells [7],no effect
B2,SIRT1 protein expression,[8],induced SIRT1 protein expression
